Assay results published in PMC9345997, “Determination of oligosaccharide product distributions of PL7 alginate lyases by their structural elements” (Communications Biology, 2022).

Molecular target: T1, PyAly (Pyropia yezoensis, UniProt D2KX85, H125A/Y223A)
T1 construct: single-domain PL7 lyase; E. coli BL21(DE3), pET32a; tag cleaved; residues built 27-241
Assay: X-ray crystal structure, […] A
Format: binding
Settings: cocrystallized at 10:1 molar ratio; complete M5 at subsites -2 to +3

T1 sequence (D2KX85 entry or part of it H125A/Y223A): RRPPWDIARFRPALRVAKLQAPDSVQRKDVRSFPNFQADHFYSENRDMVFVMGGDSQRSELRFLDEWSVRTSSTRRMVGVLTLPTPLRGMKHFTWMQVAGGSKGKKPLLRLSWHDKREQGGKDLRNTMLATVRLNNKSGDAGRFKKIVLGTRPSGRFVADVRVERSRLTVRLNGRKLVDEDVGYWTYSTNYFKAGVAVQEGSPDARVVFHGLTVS

SMILES: O=C(O)[C@H]1O[C@@H](O[C@H]2[C@H](O)[C@H](O)[C@H](O[C@H]3[C@H](O)[C@H](O)[C@H](O[C@H]4[C@H](O)[C@H](O)[C@H](O[C@H]5[C@H](O)[C@H](O)C(O)O[C@@H]5C(=O)O)O[C@@H]4C(=O)O)O[C@@H]3C(=O)O)O[C@@H]2C(=O)O)[C@@H](O)[C@@H](O)[C@@H]1O (stereo partly shown) [M5]
- X-ray crystal structure, 1.70 A: structure of the PyAly^H125A_Y223A-M5 complex presented the complete M5 substrate
